Assay results published in patent US20260262643A1, “HERBICIDAL BENZOXAZINES” (FMC CORPORATION, priority 2022, published 2026).

Columns and labels:
[1] = tested on: barnyardgrass; assay: Test A preemergence; format: in vivo, Echinochloa crusgalli; settings: visual injury after 10 days, 0 to 100 scale, 0 is no effect, 100 is complete control
Outline: (§1)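 Greenhouse pot test, 10 days. Compound (non-phytotoxic solvent, surfactant) sprayed on soil at seeding or on seedlings at one- to two-leaf stage. Visual injury rated 0–100 against untreated plants.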

[2] = tested on: blackgrass; assay: Test A preemergence; format: in vivo, Alopecurus myosuroides; settings: 0 to 100 scale
Outline: as §1

[3] = tested on: corn; assay: Test A preemergence; format: in vivo, Zea mays; settings: 0 to 100 scale
Outline: as §1

[4] = tested on: foxtail, giant; assay: Test A preemergence; format: in vivo, Setaria faberi; settings: 0 to 100 scale
Outline: as §1

[5] = tested on: kochia; assay: Test A preemergence; format: in vivo, Bassia scoparia; settings: 0 to 100 scale
Outline: as §1

[6] = tested on: oat, wild; assay: Test A preemergence; format: in vivo, Avena fatua; settings: 0 to 100 scale
Outline: as §1

[7] = tested on: pigweed, palmer; assay: Test A preemergence; format: in vivo, Amaranthus palmeri; settings: 0 to 100 scale
Outline: as §1

[8] = tested on: ragweed; assay: Test A preemergence; format: in vivo, Ambrosia artemisiifolia; settings: 0 to 100 scale
Outline: as §1

[9] = tested on: ryegrass, Italian; assay: Test A preemergence; format: in vivo, Lolium multiflorum; settings: 0 to 100 scale
Outline: as §1

[10] = tested on: soybean; assay: Test A preemergence; format: in vivo, Glycine max; settings: 0 to 100 scale
Outline: as §1

[11] = tested on: wheat; assay: Test A preemergence; format: in vivo, Triticum aestivum; settings: 0 to 100 scale
Outline: as §1

[12] = tested on: barnyardgrass; assay: Test A postemergence; format: in vivo, Echinochloa crusgalli; settings: postemergence, 10 days
Outline: as §1

[13] = tested on: blackgrass; assay: Test A postemergence; format: in vivo, Alopecurus myosuroides; settings: postemergence, 10 days
Outline: as §1

[14] = tested on: corn; assay: Test A postemergence; format: in vivo, Zea mays; settings: postemergence, 10 days
Outline: as §1

[15] = tested on: foxtail, giant; assay: Test A postemergence; format: in vivo, Setaria faberi; settings: postemergence, 10 days
Outline: as §1

[16] = tested on: kochia; assay: Test A postemergence; format: in vivo, Bassia scoparia; settings: postemergence, 10 days
Outline: as §1

[17] = tested on: oat, wild; assay: Test A postemergence; format: in vivo, Avena fatua; settings: postemergence, 10 days
Outline: as §1

[18] = tested on: pigweed, palmer; assay: Test A postemergence; format: in vivo, Amaranthus palmeri; settings: 500 g ai/ha, postemergence, 10 days, visual injury, 0 to 100 scale (0 no effect, 100 complete control)
Outline: as §1

[19] = tested on: ragweed; assay: Test A postemergence; format: in vivo, Ambrosia artemisiifolia; settings: postemergence, 10 days
Outline: as §1

[20] = tested on: ryegrass, Italian; assay: Test A postemergence; format: in vivo, Lolium multiflorum; settings: postemergence, 10 days
Outline: as §1

[21] = tested on: soybean; assay: Test A postemergence; format: in vivo, Glycine max; settings: postemergence, 10 days
Outline: as §1

[22] = tested on: wheat; assay: Test A postemergence; format: in vivo, Triticum aestivum; settings: postemergence, 10 days
Outline: as §1

[23] = tested on: galium; assay: Test A postemergence; format: in vivo, Galium aparine; settings: 500 g ai/ha, postemergence, 10 days, visual injury, 0 to 100 scale (0 no effect, 100 complete control)
Outline: as §1

[24] = tested on: horseweed; assay: Test A postemergence; format: in vivo, Erigeron canadensis; settings: postemergence, 10 days
Outline: as §1

[25] = tested on: barnyardgrass; assay: Test B flooded paddy test; format: in vivo, Echinochloa crus-galli; settings: 250 g ai/ha, Flood, 13 days, 0 to 100 scale (0 no effect, 100 complete control)
Outline: (§2)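 Compound is introduced into paddy water covering soil by 3 cm, treating plants that have reached two leaves. Pots are kept flooded at that depth under greenhouse conditions. Assessment at 13 days gives a 0–100 visual control score.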

[26] = tested on: ducksalad; assay: Test B flooded paddy test; format: in vivo, Heteranthera limosa; settings: 250 g ai/ha, Flood, 13 days, 0 to 100 scale (0 no effect, 100 complete control)
Outline: as §2

[27] = tested on: rice; assay: Test B flooded paddy test; format: in vivo, Oryza sativa; settings: 250 g ai/ha, Flood, 13 days, 0 to 100 scale (0 no effect, 100 complete control)
Outline: as §2

[28] = tested on: sedge, umbrella; assay: Test B flooded paddy test; format: in vivo, Cyperus difformis; settings: 250 g ai/ha, Flood, 13 days, 0 to 100 scale (0 no effect, 100 complete control)
Outline: as §2

[29] = 500 g ai/ha, visual injury after 10 days, 0 is no effect, 100 is complete control
[30] = 125 g ai/ha, 0 to 100 scale, 0 no effect, 100 complete control
[31] = 500 g ai/ha, visual injury, 0 to 100 scale (0 no effect, 100 complete control)

With `Cc1nc(C)n(-c2cccc(C(=O)N3C[C@H](C)Oc4c(Cl)cccc43)c2)n1` [Compound 142] the “Plant response rating, Barnyardgrass” value ([1]; 125 g ai/ha) was 30, the “Plant response rating, Barnyardgrass” value ([1]; 500 g ai/ha) was 50 and the “Plant response rating, Blackgrass” value ([2]; 125 g ai/ha) was 0. For the same molecule, the “Plant response rating, Blackgrass” value [2, 29] was 30, the “Plant response rating, Corn” value ([3]; 125 g ai/ha) was 0 and the “Plant response rating, Corn” value [3, 29] was 10. For the same molecule, the “Plant response rating, Foxtail, Giant” value ([4]; 125 g ai/ha) was 30, the “Plant response rating, Foxtail, Giant” value [4, 29] was 90 and the “Plant response rating, Kochia” value ([5]; 125 g ai/ha) was 0. For the same molecule, the “Plant response rating, Kochia” value [5, 29] was 40, the “Plant response rating, Oat, Wild” value ([6]; 125 g ai/ha) was 0 and the “Plant response rating, Oat, Wild” value [6, 29] was 0. The “Plant response rating, Pigweed, Palmer” value ([7]; 125 g ai/ha) was 0, the “Plant response rating, Pigweed, Palmer” value [7, 29] was 20 and the “Plant response rating, Ragweed” value ([8]; 125 g ai/ha) was 0. For the same molecule, the “Plant response rating, Ragweed” value [8, 29] was 0, the “Plant response rating, Ryegrass, Italian” value ([9]; 125 g ai/ha) was 30 and the “Plant response rating, Ryegrass, Italian” value [9, 29] was 50. The “Plant response rating, Soybean” value ([10]; 125 g ai/ha) was 0, the “Plant response rating, Soybean” value [10, 29] was 0 and the “Plant response rating, Wheat” value ([11]; 125 g ai/ha) was 0. The “Plant response rating, Wheat” value [11, 29] was 0, the “Barnyardgrass plant response rating” value [12, 30] was 10 and the “Plant response rating, Barnyardgrass” value [12, 31] was 10. For the same molecule, the “Blackgrass plant response rating” value [13, 30] was 0, the “Plant response rating, Blackgrass” value [13, 31] was 60 and the “Corn plant response rating” value [14, 30] was 10. The “Plant response rating, Corn” value [14, 31] was 10, the “Foxtail, Giant plant response rating” value [15, 30] was 30 and the “Plant response rating, Foxtail, Giant” value [15, 31] was 80. The “Kochia plant response rating” value [16, 30] was 10, the “Plant response rating, Kochia” value [16, 31] was 50 and the “Oat, Wild plant response rating” value [17, 30] was 0. For the same molecule, the “Plant response rating, Oat, Wild” value [17, 31] was 0, the “Plant response rating, Pigweed, Palmer” value [18] was 20 and the “Ragweed plant response rating” value [19, 30] was 0. The “Plant response rating, Ragweed” value [19, 31] was 20, the “Ryegrass, Italian plant response rating” value [20, 30] was 0 and the “Plant response rating, Ryegrass, Italian” value [20, 31] was 20. The “Soybean plant response rating” value [21, 30] was 40, the “Plant response rating, Soybean” value [21, 31] was 40 and the “Wheat plant response rating” value [22, 30] was 10. The “Plant response rating, Wheat” value [22, 31] was 10, the “Plant response rating, Galium” value [23] was 30 and the “Horseweed plant response rating” value [24, 30] was 0. The “Plant response rating, Horseweed” value [24, 31] was 0, the “Plant response rating, Barnyardgrass” value [25] was 0 and the “Plant response rating, Ducksalad” value [26] was 0. The “Plant response rating, Rice” value [27] was 0 and the “Plant response rating, Sedge, Umbrella” value [28] was 0.
